# Reference: patent publication US9464128B2, “Site-specific pegylated linear salmon calcitonin analogues” (INSTITUTE OF PHARMACOLOGY AND TOXICOLOGY ACADEMY OF …, priority 2007, dated 2016)
# Legend:
# rats [1] = experiment: Calcium-reducing activity, subcutaneous injection to abdomens of rats (blood calcium determination); format: in vivo, rat
# Method: The calcium-reducing activity of sCT(L)s and their PEGylated analogues was determined by administering them to abdomens of rats via subcutaneous injection, according to the method described in the literature (cf. Qian Deming, Shen Genquan, Ke Ruolun; Biological Assay of Calcitonin by Blood Calcium Determination in Rats, CHINESE JOURNAL OF PHARMACEUTICAL ANALYSIS, 1994, 14(3): 30-34).
# The activity results as determined were listed as follows, while the reference activity of salmon calcitonin being 4500 IU/mg.
# [2] = kidney homogenate; cited from earlier work
# rats [3] = details: reference standard; cited from earlier work
# female Wistar rats [4] = experiment: Long-acting performance study: bone density of lumbar vertebrae, femur and tibia in castrated rats; format: in vivo, rat; details: for Bone density, femur / Bone density, lumbar vertebrae / Bone density, tibia: 12th week, n = 10; for influence on bone density of lumbar vertebrae (in words): 12 weeks, high dose group of compound 12, positive contrast sCT group
# Method: (§1) 60 female Wistar rats, body weight 250-280 g, 16 weeks aged, were randomly divided into six groups: pseudo-castrated contrast group (10 rats); castrated contrast group (10 rats); calcitonin group (10 rats, twice every week, 0.036 μg/kg body weight/time); a low dose group of compound 12 (10 rats, twice every week, 0.216 μg/kg body weight/time); a high dose group of compound (10 rats, twice every week, 1.08 μg/kg body weight/time); and a high dose group of compound (10 rats, once every week, 1.08 μg/kg body weight/time). In each of the groups, the administration was given subcutaneously. During the experiment, the rats in each of the groups freely fed on standard solid forage and drank water. Except for the high dose group of compound 12 with administration once every week, blood samples were respectively taken from the orbits of the rats in other groups at the 6th week of administration, and subjected to the determination of osteocalcin, serum calcium and alkaline phosphatase (Table 2). At the end of the 12th week of administration, in addition to osteocalcin, serum calcium and alkaline phosphatase (Table 3), the bone densities of lumbar vertebrae, tibia and femur in the rats of each of the groups were determined (Table 4).
# female Wistar rats [5] = experiment: Long-acting performance study: bone metabolism (alkaline phosphatase, serum calcium, osteocalcin) in castrated rats; format: in vivo, rat; details: for Alkaline phosphatase / Osteocalcin / Serum calcium: n = 10
# Method: as §1
# [6] = 6th week, 0.036 μg/kg s.c. twice every week
# [7] = 12th week, 0.036 μg/kg s.c. twice every week
# [8] = high dose 1.08 μg/kg s.c. once/week
# [9] = high dose 1.08 μg/kg s.c. twice/week
# [10] = low dose 0.216 μg/kg s.c. twice/week
# [11] = 6th week, high dose 1.08 μg/kg s.c. twice every week
# [12] = 6th week, low dose 0.216 μg/kg s.c. twice every week
# [13] = 12th week, high dose 1.08 μg/kg s.c. twice every week
# [14] = 12th week, low dose 0.216 μg/kg s.c. twice every week
substance,measurement,setting,value
"[Val^1,Cys^7(mPEG5000-MAL), Gln^18,Des-19-22, Ala^30]sCT [Compound 18]",Activity (calcium-reducing activity),rats [1],763 IU/mg
salmon calcitonin [reference compound],metabolic half life,[2],4.8 min
same,reference activity of salmon calcitonin,rats [3],4500 IU/mg
same,"Bone density, femur",female Wistar rats [4]; 0.036 μg/kg s.c. twice/week,0.242 ± 0.027 g/cm^2
same,"Bone density, lumbar vertebrae",female Wistar rats [4]; 0.036 μg/kg s.c. twice/week,0.181 ± 0.013 g/cm^2
same,"Bone density, tibia",female Wistar rats [4]; 0.036 μg/kg s.c. twice/week,0.247 ± 0.127 g/cm^2
same,influence on bone density of lumbar vertebrae (in words),female Wistar rats [4],increased the bone density of lumbar vertebrae
same,Alkaline phosphatase,female Wistar rats [5]; [6],179.8 ± 31.4 u/100 ml
same,Osteocalcin,female Wistar rats [5]; [6],3.90 ± 1.1 ng/100 ml
same,Serum calcium,female Wistar rats [5]; [6],9.3 ± 0.2 mg/100 ml
same,Alkaline phosphatase,female Wistar rats [5]; [7],200.9 ± 40.1 u/100 ml
same,Osteocalcin,female Wistar rats [5]; [7],3.38 ± 0.17 ng/100 ml
same,Serum calcium,female Wistar rats [5]; [7],9.3 ± 0.2 mg/100 ml
"[Val^1,Cys^7(mPEG5000-MAL),Des-19,Ala^30]sCT [Compound 13]",Activity (calcium-reducing activity),rats [1],438 IU/mg
"[Val^1,Cys^7,Gln^11,Ala^30,Des-19-22]sCT [Compound 8]",Activity (calcium-reducing activity),rats [1],344 IU/mg
"[Val^1,Cys^7(mPEG5000-MAL), Gln^11,18,Des-19-22,Ala^30]sCT [Compound 20]",Activity (calcium-reducing activity),rats [1],1265 IU/mg
"[Val^1,Ala^7,Gln^11,18,Cys^16(mPEG5000-MAL),Des-19-22,Ala^30]sCT [Compound 15]",Activity (calcium-reducing activity),rats [1],301 IU/mg
"[Val^1, Ala^7, Cys^19(mPEG5000-MAL),Des-20-22, Ala^30]sCT [Compound 21]",Activity (calcium-reducing activity),rats [1],1208 IU/mg
"[Val^1,Cys^7,Des-19-22,Ala^30]sCT [Compound 5]",Activity (calcium-reducing activity),rats [1],67 IU/mg
"[Val^1,Ala^7,Cys^19,Ala^30,Des-20-22]sCT [Compound 10]",Activity (calcium-reducing activity),rats [1],892 IU/mg
"[Val^1,Ala^7,Cys^19,Ala^30,Des-20-21]sCT [Compound 11]",Activity (calcium-reducing activity),rats [1],379 IU/mg
"[Val^1,Cys^7,Des-19,Ala^30]sCT [Compound 2]",Activity (calcium-reducing activity),rats [1],1136 IU/mg
"[Val^1,Cys^7(mPEG5000-MAL),Des-19,Ala^30]sCT [Compound 17]",Activity (calcium-reducing activity),rats [1],1921 IU/mg
"[Val^1, Ala^7, Cys^16(mPEG5000-MAL), Des-19-22, Ala^30]sCT [Compound 14]",Activity (calcium-reducing activity),rats [1],987 IU/mg
"[D-Ala^1,Cys^7(mPEG5000-MAL),D-Ala^30]sCT [Compound 12]",Activity (calcium-reducing activity),rats [1],1467 IU/mg
same,"Bone density, lumbar vertebrae",female Wistar rats [4]; [8],0.182 ± 0.014 g/cm^2
same,"Bone density, tibia",female Wistar rats [4]; [8],0.251 ± 0.015 g/cm^2
same,"Bone density, femur",female Wistar rats [4]; [9],0.241 ± 0.017 g/cm^2
same,"Bone density, lumbar vertebrae",female Wistar rats [4]; [9],0.181 ± 0.018 g/cm^2
same,"Bone density, tibia",female Wistar rats [4]; [9],0.256 ± 0.017 g/cm^2
same,"Bone density, femur",female Wistar rats [4]; [10],0.240 ± 0.028 g/cm^2
same,"Bone density, lumbar vertebrae",female Wistar rats [4]; [10],0.175 ± 0.021 g/cm^2
same,"Bone density, tibia",female Wistar rats [4]; [10],0.245 ± 0.014 g/cm^2
same,influence on bone density of lumbar vertebrae (in words),female Wistar rats [4],increased the bone density of lumbar vertebrae
same,Alkaline phosphatase,female Wistar rats [5]; [11],180.0 ± 19.4 u/100 ml
same,Osteocalcin,female Wistar rats [5]; [11],3.81 ± 0.24 ng/100 ml
same,Serum calcium,female Wistar rats [5]; [11],9.2 ± 0.2 mg/100 ml
same,Alkaline phosphatase,female Wistar rats [5]; [12],187.0 ± 30.4 u/100 ml
same,Osteocalcin,female Wistar rats [5]; [12],3.77 ± 0.25 ng/100 ml
same,Serum calcium,female Wistar rats [5]; [12],9.8 ± 0.3 mg/100 ml
same,Alkaline phosphatase,female Wistar rats [5]; [13],188.2 ± 51.2 u/100 ml
same,Osteocalcin,female Wistar rats [5]; [13],3.95 ± 0.24 ng/100 ml
same,Serum calcium,female Wistar rats [5]; [13],9.4 ± 0.4 mg/100 ml
same,Alkaline phosphatase,female Wistar rats [5]; [14],202.4 ± 44.8 u/100 ml
same,Osteocalcin,female Wistar rats [5]; [14],4.01 ± 0.25 ng/100 ml
same,Serum calcium,female Wistar rats [5]; [14],9.8 ± 0.3 mg/100 ml
same,influence on bone metabolism of rats compared with sCT group (in words),"female Wistar rats [5]; high dose group, 6th and 12th weeks of administration",substantially equivalent to the positive contrast sCT group
"[Val^1,Cys^7(mPEG5000-MAL), Gln^11,Des-19-22, Ala^30]sCT [Compound 19]",Activity (calcium-reducing activity),rats [1],815 IU/mg
"[Val^1,Cys^7,Gln^11,18,Ala^30,Des-19-22]sCT [Compound 9]",Activity (calcium-reducing activity),rats [1],920 IU/mg
"[Val^1, Cys^7(mPEG5000-MAL),Des-19-22, Ala^30]sCT [Compound 16]",Activity (calcium-reducing activity),rats [1],717 IU/mg
"[Val^1,Ala^7,Cys^16,Ala^30,Des-19-22]sCT [Compound 3]",Activity (calcium-reducing activity),rats [1],3394 IU/mg
"[D-Ala^1,Cys^7,D-Ala^30]sCT [Compound 1]",Activity (calcium-reducing activity),rats [1],5202 IU/mg
"[Val^1,Ala^7,Cys^19(mPEG5000-MAL),Des-20-21, Ala^30]sCT [Compound 22]",Activity (calcium-reducing activity),rats [1],1707 IU/mg
"[Val^1,Cys^7,Gln^18,Ala^30,Des-19-22]sCT [Compound 7]",Activity (calcium-reducing activity),rats [1],233 IU/mg
"[Val^1,Cys^7,Ala^30,Des-19]sCT [Compound 6]",Activity (calcium-reducing activity),rats [1],4347 IU/mg
"[Val^1,Ala^7,Gln^11,18,Cys^16,Ala^30,Des-19-22]sCT [Compound 4]",Activity (calcium-reducing activity),rats [1],807 IU/mg
